Results taken from ChEMBL document CHEMBL1201862, “PubChem BioAssay data set” (2004).
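Dose response: 5 concentrations. Exposure: 48 h. Format: 96-well plates. Endpoint: linear interpolation; highest concentration if not reached. GI50 marks 50% less growth.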 The source made the active and inactive calls. Rule as the data show it: active = GI50 up to about 1.1 µM and inactive = higher.

What was measured:
Assay in all cases: NCI tumour cell line growth inhibition, 48 h
RPMI-8226 = tested on: RPMI-8226
UACC-257 = tested on: UACC-257
U-251 = tested on: U-251
SR = tested on: SR
SNB-78 = tested on: SNB-78
NCI-H460 = tested on: NCI-H460
LXFL 529 = tested on: LXFL 529
OVCAR-5 = tested on: OVCAR-5
SF-295 = tested on: SF-295
A549 = tested on: A549
RXF 393 = tested on: RXF 393
CAKI-1 = tested on: CAKI-1
NCI-H23 = tested on: NCI-H23
ACHN = tested on: ACHN
DLD-1 = tested on: DLD-1
SW-620 = tested on: SW-620
TK-10 = tested on: TK-10
HCT-116 = tested on: HCT-116
SF-539 = tested on: SF-539
HOP-92 = tested on: HOP-92
SK-OV-3 = tested on: SK-OV-3
OVCAR-4 = tested on: OVCAR-4
SK-MEL-5 = tested on: SK-MEL-5
NCI-H226 = tested on: NCI-H226
HCC 2998 = tested on: HCC 2998
SNB-19 = tested on: SNB-19
UO-31 = tested on: UO-31
M14 = tested on: M14
KM-20L2 = tested on: KM-20L2
SF-268 = tested on: SF-268
IGROV-1 = tested on: IGROV-1
OVCAR-3 = tested on: OVCAR-3
SNB-75 = tested on: SNB-75
DMS-114 = tested on: DMS-114
XF498 = tested on: XF498
SN12C = tested on: SN12C
UACC-62 = tested on: UACC-62
HOP-18 = tested on: HOP-18
LOX IMVI = tested on: LOX IMVI
MOLT-4 = tested on: MOLT-4
NCI-H522 = tested on: NCI-H522
HOP-62 = tested on: HOP-62
Malme-3M = tested on: Malme-3M
HCT-15 = tested on: HCT-15
OVCAR-8 = tested on: OVCAR-8
DMS-273 = tested on: DMS-273
HT-29 = tested on: HT-29
M19-MEL = tested on: M19-MEL
SK-MEL-2 = tested on: SK-MEL-2
KM12 = tested on: KM12
HL-60 = tested on: HL-60
786-0 = tested on: 786-0
SK-MEL-28 = tested on: SK-MEL-28
K562 = tested on: K562
COLO 205 = tested on: COLO 205
CCRF-CEM = tested on: CCRF-CEM
EKVX = tested on: EKVX
A498 = tested on: A498

Measured: GI50

CCOc1ccc(C(C)c2cc3c(cc2OC)OCO3)cc1 (stereo not given)
inactive: SNB-78 3.2 µM | OVCAR-5 65.5 µM | OVCAR-4 > 100 µM | IGROV-1 2.75 µM | HOP-18 2.2 µM
0.299 µM: HCT-15
active: RPMI-8226 0.427 µM | UACC-257 0.767 µM | U-251 0.38 µM | SR 0.0982 µM | NCI-H460 0.34 µM | LXFL 529 0.429 µM | SF-295 0.0828 µM | A549 0.455 µM | RXF 393 0.222 µM | CAKI-1 0.834 µM | NCI-H23 0.267 µM | ACHN 0.897 µM | DLD-1 0.377 µM | SW-620 0.259 µM | TK-10 0.353 µM | HCT-116 0.371 µM | SF-539 0.271 µM | HOP-92 0.855 µM | SK-OV-3 0.32 µM | SK-MEL-5 0.269 µM | NCI-H226 0.207 µM | HCC 2998 0.466 µM | SNB-19 0.561 µM | UO-31 0.491 µM | M14 0.361 µM | KM-20L2 0.199 µM | SF-268 1.05 µM | OVCAR-3 0.221 µM | SNB-75 0.277 µM | DMS-114 0.214 µM | XF498 0.256 µM | SN12C 0.484 µM | UACC-62 0.376 µM | LOX IMVI 0.259 µM | MOLT-4 0.396 µM | NCI-H522 0.0316 µM | HOP-62 0.323 µM | Malme-3M 0.457 µM | OVCAR-8 0.424 µM | DMS-273 0.245 µM | HT-29 0.237 µM

COC(=O)C1N=CSCC1(C)O (stereo not given)
> 100 µM: HCT-15
inactive: RPMI-8226 > 100 µM | UACC-257 > 100 µM | SNB-78 > 100 µM | NCI-H460 > 100 µM | OVCAR-5 > 100 µM | SF-295 > 100 µM | A549 > 100 µM | RXF 393 > 100 µM | CAKI-1 > 100 µM | M19-MEL > 100 µM | NCI-H23 > 100 µM | ACHN > 100 µM | DLD-1 > 100 µM | SW-620 > 100 µM | SK-MEL-2 > 100 µM | TK-10 > 100 µM | HCT-116 > 100 µM | SF-539 > 100 µM | HOP-92 > 100 µM | KM12 > 100 µM | SK-OV-3 > 100 µM | OVCAR-4 > 100 µM | SK-MEL-5 > 100 µM | NCI-H226 > 100 µM | HL-60 > 100 µM | 786-0 > 100 µM | HCC 2998 > 100 µM | SNB-19 > 100 µM | UO-31 > 100 µM | M14 > 100 µM | KM-20L2 > 100 µM | SF-268 > 100 µM | IGROV-1 > 100 µM | OVCAR-3 > 100 µM | SNB-75 > 100 µM | DMS-114 > 100 µM | SK-MEL-28 > 100 µM | XF498 > 100 µM | SN12C > 100 µM | UACC-62 > 100 µM | K562 > 100 µM | HOP-18 > 100 µM | LOX IMVI > 100 µM | COLO 205 > 100 µM | CCRF-CEM > 100 µM | MOLT-4 > 100 µM | EKVX > 100 µM | HOP-62 > 100 µM | Malme-3M > 100 µM | OVCAR-8 > 100 µM | A498 > 100 µM | HT-29 > 100 µM

COc1ccc(C(=O)C(C(=O)C(=O)Nc2nccs2)c2ccc(OC)cc2)cc1 (stereo not given)
inactive: RPMI-8226 > 100 µM | UACC-257 > 100 µM | U-251 > 100 µM | SNB-78 > 100 µM | NCI-H460 > 100 µM | LXFL 529 > 100 µM | OVCAR-5 > 100 µM | A549 > 100 µM | RXF 393 80.9 µM | CAKI-1 > 100 µM | NCI-H23 > 100 µM | ACHN > 100 µM | DLD-1 > 100 µM | SW-620 > 100 µM | SK-MEL-2 > 100 µM | TK-10 > 100 µM | HCT-116 > 100 µM | SF-539 > 100 µM | HOP-92 > 100 µM | KM12 > 100 µM | SK-OV-3 > 100 µM | OVCAR-4 > 10 µM | SK-MEL-5 > 100 µM | 786-0 > 100 µM | SNB-19 > 100 µM | UO-31 > 100 µM | M14 > 100 µM | KM-20L2 > 100 µM | SF-268 > 100 µM | IGROV-1 > 100 µM | OVCAR-3 > 100 µM | SNB-75 73.6 µM | DMS-114 > 100 µM | SK-MEL-28 > 100 µM | XF498 > 100 µM | SN12C > 100 µM | UACC-62 > 100 µM | K562 > 100 µM | HOP-18 > 100 µM | LOX IMVI > 100 µM | COLO 205 > 100 µM | CCRF-CEM > 100 µM | MOLT-4 > 100 µM | NCI-H522 92 µM | Malme-3M > 100 µM | OVCAR-8 > 100 µM | DMS-273 > 100 µM | A498 > 100 µM | HT-29 > 100 µM
> 100 µM: HCT-15
